Measured values as given in PMC11786100, “Chronic GIPR agonism results in pancreatic islet GIPR functional desensitisation” (Molecular Metabolism, 2025).

Assays:
Type in all cases: cell-based
[1] = target: T1, mouse SNAP-tagged GLP-1R (Mus musculus, UniProt O35659); experiment: β-arrestin-2 activation assay (Borealis sensor) in AD-293 cells; conditions: 10 nM, 30-minute stimulation, n = 5–6
T1 construct: host or cells: AD-293
T1 sequence (O35659 22-463): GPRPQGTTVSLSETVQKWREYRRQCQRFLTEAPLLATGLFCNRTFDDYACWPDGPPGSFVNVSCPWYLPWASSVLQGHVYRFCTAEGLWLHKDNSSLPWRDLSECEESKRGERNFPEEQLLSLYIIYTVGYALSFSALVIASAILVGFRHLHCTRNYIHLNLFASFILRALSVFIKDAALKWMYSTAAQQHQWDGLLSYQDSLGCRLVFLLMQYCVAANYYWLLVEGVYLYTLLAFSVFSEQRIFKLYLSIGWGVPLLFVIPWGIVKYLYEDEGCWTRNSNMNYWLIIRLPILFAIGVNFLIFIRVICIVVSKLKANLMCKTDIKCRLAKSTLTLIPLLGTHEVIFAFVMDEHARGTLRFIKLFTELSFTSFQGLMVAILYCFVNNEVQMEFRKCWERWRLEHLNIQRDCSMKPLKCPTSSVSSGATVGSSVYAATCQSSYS
Experimental: AD-293 cells were transfected with desired plasmid DNA encoding a SNAP-tagged GPCR alongside transduction of Bacmam viral particles encoding the Borealis β-arrestin-2 sensor (Montana Molecular, US) and GRK5 (Montana Molecular, US) 24 h prior to assay. Cells were labelled for 10 min with BG-S-S-649 and imaged at baseline and for 30 min following peptide stimulation. Borealis arrestin sensor fluorescence in BG-S-S-649 labelled cells (representing GPCR expressing cells) was quantified and expressed as a % change from baseline. Full details are provided in the supplementary methods.
AD-293 cells were added to a 96-well plate and maintained in 200 μL complete DMEM. […]
Cells were labelled with cleavable SNAP-tag probe BG-S-S-649 in complete DMEM for 10 minutes prior to washing and imaging. […] Cells were imaged at baseline, registering both BG-S-S-649 fluorescence and borealis arrestin sensor fluorescence. Borealis arrestin sensor fluorescence was then imaged for 30 minutes after peptide addition in intervals of 5 minutes. Borealis arrestin sensor fluorescence in BG-S-S-649 labelled cells was quantified using Fiji v1.54f (NIH) and expressed as a % change from baseline.

[2] = target: T2, mouse SNAP-tagged GIPR (Mus musculus, UniProt Q0P543); experiment: as above; conditions: 1 μM, 30-minute stimulation, n = 5–6
T2 construct: host or cells: AD-293
T2 sequence (Q0P543 19-460): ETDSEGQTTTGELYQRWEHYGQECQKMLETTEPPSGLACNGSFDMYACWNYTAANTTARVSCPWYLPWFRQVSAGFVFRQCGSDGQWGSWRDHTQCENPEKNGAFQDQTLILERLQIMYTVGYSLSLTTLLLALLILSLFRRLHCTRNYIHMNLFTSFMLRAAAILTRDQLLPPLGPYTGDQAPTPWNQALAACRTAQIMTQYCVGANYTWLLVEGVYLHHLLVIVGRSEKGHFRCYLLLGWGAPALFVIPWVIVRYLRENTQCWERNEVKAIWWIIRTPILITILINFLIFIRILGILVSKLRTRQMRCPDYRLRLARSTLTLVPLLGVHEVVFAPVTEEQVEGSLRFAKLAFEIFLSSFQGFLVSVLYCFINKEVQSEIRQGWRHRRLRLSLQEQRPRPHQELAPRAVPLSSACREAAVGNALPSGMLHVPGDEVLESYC
Experimental: AD-293 cells were added to a 96-well plate and maintained in 200 μL complete DMEM. 150 ng of mouse or human SNAP-tagged plasmid GIPR or GLP-1R DNA, 2 μL of Borealis β-arrestin-2 sensor (Montana Molecular, US) and 2 μL of GRK5 (Montana Molecular, US) was added to each well alongside Lipofectamine 2000 and left for 24 hours.

[3] = target: T3, SNAP-tagged mouse GIPR (Mus musculus, UniProt Q0P543); experiment: Internalisation and receptor surface expression assays in AD-293 cells; conditions: 1 μM, 1-hour treatment, BG-S-S-649/Mesna, n = 3–4
T3 construct: host or cells: AD-293
T3 sequence (Q0P543 19-460): T2 sequence (Q0P543 19-460)
Experimental: (§3) AD-293 cells were transfected with desired plasmid DNA encoding a SNAP-tagged G-protein coupled receptor (GPCR) 24 h prior to assay. For 1 h internalisation assays, cells were labelled for 10 min with cleavable SNAP-tag probe BG-S-S-649 (New England BioLabs, US). Following 1 h treatment with specified peptide, cells were imaged at baseline and after addition of 2-mercaptoethane sulfonate (Mesna). For 4-hour GPCR surface expression assays, cells were treated with the specified peptide for 4 h, prior to 10-minute labelling with BG-S-S-649 and imaging.
(§4) AD-293 cells were added to a 96-well plate and maintained in 200 μl complete DMEM. […]
(§5) For 1 hour internalisation assays, cells were labelled with cleavable SNAP-tag probe BG-S-S-649 (New England BioLabs, US) in complete DMEM for 10 minutes prior to washing and 1 hour treatment with specified peptide, reconstituted in DMEM + 0.1% BSA. […] GPCR internalisation was quantified as the cell fluorescence following Mesna addition (representing internalised GPCR), corrected for the baseline cell fluorescence (representing total cellular GPCR).
(§6) For 4-hour GPCR surface expression assays, cells were treated with specified peptide for 4 hours in complete DMEM prior to labelling with BG-S-S-649. […] GPCR surface expression following peptide treatment was quantified as cell fluorescence as a percentage of cell fluorescence following vehicle treatment.

[4] = target: T4, mouse GCGR (Mus musculus, UniProt Q61606); experiment: HTRF cAMP assay in transiently transfected AD-293 cells; conditions: 30 min stimulation, n = 3–5
T4 construct: Plasmids encoding full length, wild-type human or mouse GLP-1R, GIPR or glucagon receptor (GCGR) in the pcDNA5/FRT vector; host or cells: AD-293
Experimental: (§1) AD-293 cells were transfected with desired plasmid DNA 24 h prior to cAMP quantification using the cAMP-Gs Dynamic 2 kit (Cisbio, France), as per manufacturer's protocol. Full details are provided in the supplementary methods.
(§2) AD-293 cells were added to a 12-well plate and maintained in 2 ml complete DMEM. 1 μg of specified plasmid DNA was added to each well alongside Lipofectamine 2000 (Thermo Fisher, UK). cAMP production was quantified 24 hours following transfection using homogenous time resolved fluorescence (HTRF), specifically the cAMP-Gs Dynamic 2 kit (Cisbio, France). Peptides and cells were diluted in DMEM + 1% P/S + 0.1% BSA. For peptide stability testing, cells, fresh peptide and peptide incubated with dispersed islet cells were diluted in RPMI-1640 (Thermo Fisher, UK) + 10% FBS + 1% P/S. 10 μl of peptide and 10 μl of cell suspension were added in duplicate to an opaque 96-well plate (Grenier Bio-One, Austria) and incubated at 37°C for 30 minutes. 10 μl of cAMP-d2 and anti-cAMP cryptate, both diluted in lysis buffer, were added in quick succession as per the manufacturer’s protocol. The plates were then incubated at room temperature for 45 minutes and read using the SpectraMax i3x (Molecular Devices, US).

[5] = target: T5, human GIPR (Homo sapiens, UniProt P48546); experiment: as above; conditions: 30 min stimulation, n = 3–5
T5 construct: Plasmids encoding full length, wild-type human or mouse GLP-1R, GIPR or glucagon receptor (GCGR) in the pcDNA5/FRT vector; host or cells: AD-293
T5 sequence (P48546 22-466): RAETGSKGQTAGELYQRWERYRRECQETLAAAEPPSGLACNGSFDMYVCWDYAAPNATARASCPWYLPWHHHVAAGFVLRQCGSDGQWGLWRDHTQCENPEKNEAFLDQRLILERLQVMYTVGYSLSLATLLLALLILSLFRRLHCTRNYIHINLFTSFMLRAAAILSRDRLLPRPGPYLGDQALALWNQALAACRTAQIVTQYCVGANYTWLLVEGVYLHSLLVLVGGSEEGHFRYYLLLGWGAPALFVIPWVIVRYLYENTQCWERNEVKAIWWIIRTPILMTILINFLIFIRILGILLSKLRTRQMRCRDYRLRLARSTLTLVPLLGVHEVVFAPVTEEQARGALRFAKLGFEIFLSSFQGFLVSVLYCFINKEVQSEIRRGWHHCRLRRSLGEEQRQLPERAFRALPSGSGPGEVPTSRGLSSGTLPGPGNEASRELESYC
Experimental: as §1, §2

[6] = target: T6, SNAP-tagged human GIPR (Homo sapiens, UniProt P48546); experiment: Internalisation and receptor surface expression assays in AD-293 cells; conditions: 1 μM
T6 construct: host or cells: AD-293
T6 sequence (P48546 22-466): T5 sequence (P48546 22-466)
Experimental: as §3, §4, §5, §6

T4 sequence (Q61606 27-485): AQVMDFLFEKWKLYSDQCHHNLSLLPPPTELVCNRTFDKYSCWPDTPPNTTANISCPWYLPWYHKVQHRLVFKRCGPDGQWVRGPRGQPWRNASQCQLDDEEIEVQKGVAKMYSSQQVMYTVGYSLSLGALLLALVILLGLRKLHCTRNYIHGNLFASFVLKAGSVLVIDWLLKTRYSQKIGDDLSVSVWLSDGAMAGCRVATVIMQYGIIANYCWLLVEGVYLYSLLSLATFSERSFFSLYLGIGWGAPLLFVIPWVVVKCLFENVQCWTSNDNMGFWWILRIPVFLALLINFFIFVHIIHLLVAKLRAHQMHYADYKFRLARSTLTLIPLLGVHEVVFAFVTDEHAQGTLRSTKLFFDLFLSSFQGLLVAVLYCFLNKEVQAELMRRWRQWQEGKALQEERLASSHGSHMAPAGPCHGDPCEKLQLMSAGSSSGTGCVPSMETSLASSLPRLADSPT

Molecule	β-arrestin-2 activation compared to vehicle control [1]	β-arrestin-2 activation compared to vehicle control [2]	receptor internalisation compared to vehicle [3]	cAMP activation of mouse GCGR [4]	cAMP potency at human GIPR compared with human GIP(1–42) [5]	receptor internalisation compared to vehicle ([6]; 1-hour treatment, BG-S-S-649/Mesna, n = 3–4)	residual receptor detectable at the cell surface ([6]; 4 h treatment, post-stimulation labelling, n = 7–8)
GLP-1(7–36)·NH2	significant β-arrestin-2 activation	–	–	–	–	–	–
CC[C@H](C)[C@H](NC(=O)[C@H](CO)NC(=O)[C@H](Cc1ccc(O)cc1)NC(=O)[C@H](CC(=O)O)NC(=O)[C@H](CO)NC(=O)[C@@H](NC(=O)[C@H](Cc1ccccc1)NC(=O)[C@@H](NC(=O)CNC(=O)[C@H](CCC(=O)O)NC(=O)C(C)(C)NC(=O)[C@@H](N)Cc1ccc(O)cc1)[C@@H](C)O)[C@@H](C)CC)C(=O)N[C@@H](C)C(=O)N[C@@H](CC(C)C)C(=O)N[C@@H](CC(=O)O)C(=O)N[C@@H](CCCCN)C(=O)N[C@H](C(=O)N[C@@H](Cc1c[nH]cn1)C(=O)N[C@@H](CCC(N)=O)C(=O)N[C@@H](CCC(N)=O)C(=O)N[C@@H](CC(=O)O)C(=O)N[C@@H](Cc1ccccc1)C(=O)N[C@H](C(=O)N[C@@H](CC(N)=O)C(=O)N[C@@H](Cc1c[nH]c2ccccc12)C(=O)N[C@@H](CC(C)C)C(=O)N[C@@H](CC(C)C)C(=O)N[C@@H](C)C(=O)N[C@@H](CCC(N)=O)C(=O)N[C@@H](CCCCN)C(=O)NCC(=O)N[C@@H](CCCCNC(=O)CC[C@H](NC(=O)CCCCCCCCCCCCCCCCCCC(=O)O)C(=O)O)C(=O)N[C@@H](CCCCN)C(=O)N[C@@H](CC(N)=O)C(=O)N[C@@H](CC(=O)O)C(=O)N[C@@H](Cc1c[nH]c2ccccc12)C(=O)N[C@@H](CCCCN)C(=O)N[C@@H](Cc1c[nH]cn1)C(=O)N[C@@H](CC(N)=O)C(=O)N[C@H](C(=O)N[C@H](C(=O)N[C@@H](CCC(N)=O)C(=O)O)[C@@H](C)O)[C@@H](C)CC)C(C)C)[C@@H](C)CC [GIP108]	–	neither hGIP (1 μM) nor GIP108 (1 μM) resulted in significant increases	did not increase mouse GIPR internalisation	minimal activation	potency similar to human GIP(1–42)	increased human GIPR internalisation	reduction in residual human GIPR
